The source of these data is PubChem BioAssay (NCI).

Holding throughout (assay): NCI tumour cell line growth inhibition, 48 h
Experiment [1] concerns MOLT-4 leukemia.
Experiment [2] concerns COLO 205 colon.
The subject of experiment [3] is M14 melanoma.
In experiment [4] the test system is SNB-75 CNS.
Experiment [5] has as its system PC-3 prostate.
Experiment [6] has as its system K-562 leukemia.
In experiment [7] the test system is OVCAR-5 ovarian.
For experiment [8], the system named is SR leukemia.
Experiment [9] deals with T-47D breast.
The subject of experiment [10] is LOX IMVI melanoma.

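Step 1: Grow cells in 96-well plates. Step 2: Expose to compound for 48 hours at 5 concentrations. Step 3: Interpolate endpoints linearly; if unreached, use highest concentration. At the GI50, growth is halved. Definition used: TGI = concentration required for complete inhibition of growth.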

As for `Nc1ncnc2c1nc(N)n2C1OC(CO)C(O)C1O` (stereo not given), the GI50 in [1] is 1760 nM; in experiment [2], 142 nM; in experiment [3] it was 110 nM; in experiment [4] it was 1880 nM; in experiment [5], 1070 nM; in experiment [6], 271 nM. For the same compound, the GI50 in [7] is 221 nM; in [8], 524 nM; in experiment [9], 449 nM; in experiment [10], 212 nM. For the same compound, the TGI is more than 24400 nM in [1]; 1160 nM in experiment [2]; 355 nM in experiment [3]; 3700 nM in experiment [4]; 8210 nM in experiment [5]; more than 100000 nM in experiment [6]. The TGI is 15400 nM in [7], 4380 nM in [8], 2680 nM in experiment [9] and 1170 nM in experiment [10].
For the compound `COC(=O)c1c2c(c(C)[n+]([O-])c1C)C(=O)C=C(NCc1ccc(Br)cc1)C2=O`, the GI50 is 870 nM in experiment [1]; 322 nM in [2]; 44.2 nM in experiment [3]; 1580 nM in experiment [4]; 428 nM in [5]; 47.2 nM in experiment [6]. The GI50 in experiment [7] was 1330 nM; in experiment [8], 1700 nM; in experiment [9] it was 141 nM; in [10], 70 nM. The TGI in experiment [1] was 3990 nM; in experiment [2], 1170 nM; in [3], 1040 nM; in [4] it was 2940 nM; in experiment [5] it was 3370 nM; in experiment [6], more than 100000 nM. In addition, the TGI in experiment [7] was 2830 nM; in experiment [8], more than 100000 nM; in experiment [9], 2090 nM; in [10], 1620 nM.
As to `O=Cc1c[nH]c2ccc(-c3csc4ccccc34)cc12`, the GI50 in experiment [1] was 3100 nM; in experiment [2] it was 4460 nM; in [3] it was 3190 nM; in experiment [4], 1250 nM; in experiment [5], 3020 nM; in experiment [6] it was 1690 nM. The GI50 in [7] is 88100 nM; in experiment [8], 1120 nM; in experiment [9] it was 9150 nM; in experiment [10], 3870 nM. In addition, the TGI is 19100 nM in experiment [1]; more than 100000 nM in [2]; more than 100000 nM in experiment [3]; 5880 nM in [4]; more than 100000 nM in [5]; more than 100000 nM in experiment [6]. Besides, the TGI in [7] was more than 100000 nM; in [8], 10900 nM; in [9], more than 100000 nM; in experiment [10], more than 100000 nM.
